Patent US6569878B1, “Substituted 4-amino-thiazol-2-yl compounds as cyclin-dependent kinase inhibitors” (Agouron Pharmaceuticals Inc., priority 1997, dated 2003)
pIC50, pKi: −log10 of the molar value. Counter-ions that a name gives are not always drawn.

What was measured:
U2-OS = test: Inhibition of cell growth, MTT assay, U2-OS; assay type: cell-based; conditions: for pIC50 / IC90: Homo sapiens, U2OS; for % inhibition of growth in parentheses after >25: concentration not given
Procedure: (§1) The water-insoluble purple formazan product was then detected spectrophotometrically. […] Plates were incubated for four hours before addition of inhibitor compounds. Different concentrations of inhibitor compounds were added in 0.5% (v/v) dimethylsulfoxide (15 μL/well), and cells were incubated at 37° C. (5% CO2) for four to six days (depending on cell type). At the end of the incubation, MTT was added to a final concentration of 0.2 mg/mL, and cells were incubated for 4 hours more at 37° C. After centrifugation of the plates and removal of medium, the absorbance of the formazan (solubilized in dimethylsulfoxide) was measured at 540 nm.

[1] = target: T1, human CDK1 (cdc2) and cyclin B (Homo sapiens, UniProt P06493); test: Inhibition of CDK1(cdc2)/cyclin B histone H1 kinase activity; assay type: biochemical; conditions: read-out: Ki CDK 1/B
T1 construct: purchased New England Biolabs (Beverly Mass.)
T1 sequence (P06493 whole entry): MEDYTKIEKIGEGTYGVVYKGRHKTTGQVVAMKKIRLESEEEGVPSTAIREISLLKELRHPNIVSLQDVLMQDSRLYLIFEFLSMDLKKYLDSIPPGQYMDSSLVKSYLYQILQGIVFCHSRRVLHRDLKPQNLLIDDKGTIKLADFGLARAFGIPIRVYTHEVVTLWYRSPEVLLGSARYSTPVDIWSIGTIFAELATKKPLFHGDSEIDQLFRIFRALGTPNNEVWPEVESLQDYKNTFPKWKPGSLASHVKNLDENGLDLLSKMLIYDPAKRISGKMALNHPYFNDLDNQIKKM
T1 sequence (P14635 whole entry partner): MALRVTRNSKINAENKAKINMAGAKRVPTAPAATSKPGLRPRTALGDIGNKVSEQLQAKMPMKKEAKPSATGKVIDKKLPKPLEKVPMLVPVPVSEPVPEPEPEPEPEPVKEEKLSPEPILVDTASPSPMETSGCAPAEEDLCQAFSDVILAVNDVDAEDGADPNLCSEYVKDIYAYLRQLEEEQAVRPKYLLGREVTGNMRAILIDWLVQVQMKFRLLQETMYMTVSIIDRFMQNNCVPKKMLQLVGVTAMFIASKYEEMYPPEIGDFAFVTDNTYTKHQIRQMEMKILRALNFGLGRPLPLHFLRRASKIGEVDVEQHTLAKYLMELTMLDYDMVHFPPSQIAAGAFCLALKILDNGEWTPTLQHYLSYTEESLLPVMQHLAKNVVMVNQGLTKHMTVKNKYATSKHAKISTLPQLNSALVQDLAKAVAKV
Procedure: Cyclin-dependent kinase activity was measured by quantifying the enzyme-catalyzed, time-dependent incorporation of radioactive phosphate from [^32P]ATP or [^33P]ATP into a protein substrate. Unless noted otherwise, assays were performed in 96-well plates in a total volume of 50 μL, in the presence of 10 mM HEPES (N-[2-hydroxyethyl]piperazine-N′-[2-ethanesulfonic acid]) (pH 7.4), 10 mM MgCl2, 25 μM adenosine triphosphate (ATP), 1 mg/mL ovalbumin, 5 μg/mL leupeptin, 1 mM dithiothreitol, 10 mM β-glycerophosphate, 0.1 mM sodium vanadate, 1 mM sodium fluoride, 2.5 mM ethylene glycol-bis(β-aminoethyl ether)-N,N,N′N′-tetraacetic acid (EGTA), 2% (v/v) dimethylsulfoxide, and 0.03-0.4 μCi [^32/33P]ATP per reaction. Reactions were initiated with enzyme, incubated at 30° C., and terminated after 20 minutes by the addition of ethylenediaminetetraacetic acid (EDTA) to 250 mM. The phosphorylated substrate was then captured on a nitrocellulose or phosphocellulose membrane using a 96-well filtration manifold, and unincorporated radioactivity was removed by repeated washing with 0.85% phosphoric acid. Radioactivity was quantified by exposing the dried membranes to a phosphorimager.
Apparent Ki values were measured by assaying enzyme activity in the presence of different inhibitor compound concentrations and subtracting the background radioactivity measured in the absence of enzyme. The kinetic parameters (kcat, Km for ATP) were measured for each enzyme under the usual assay conditions by determining the dependence of initial rates on ATP concentration. Inhibition data were fit to an equation for competitive inhibition using Kaleidagraph (Synergy Software), or were fit to an equation for competitive tight-binding inhibition using the software KineTic (BioKin, Ltd.).
The complex of human CDK1 (cdc2) and cyclin B was purchased from New England Biolabs (Beverly Mass.). Alternatively, a CDK1/glutathione-S-transferase-cyclin B1 complex was purified using glutathione affinity chromatography from insect cells that had been co-infected with the corresponding baculovirus expression vectors. The assay was executed as described above at 30° C. using 2.5 units of cdc2/cyclin B, 10 μg Histone H1 protein, and 0.1-0.3 μCi [^32/33P]ATP per assay. Phosphorylated histone substrate was captured by microfiltration on a phosphocellulose P81 membrane and quantified using a phosphorimager as described above. Ki values were measured using the described curve-fitting programs.

HCT116 = test: Inhibition of cell growth, MTT assay, HCT116; assay type: cell-based, human; conditions: for pIC50 / IC90: Homo sapiens, HCT-116
Procedure: as §1

[2] = target: T2, complex of human CDK4 and cyclin D3 (Homo sapiens, UniProt P11802); test: Inhibition of CDK4/cyclin D retinoblastoma kinase activity (D-type cyclin is D3); assay type: biochemical; conditions: superscript a: D-type cyclin is D3; apparent Ki; read-out: Ki CDK 4/D
T2 construct: made in house; host or cells: insect cells, co-infected with baculovirus
T2 sequence (P11802 whole entry): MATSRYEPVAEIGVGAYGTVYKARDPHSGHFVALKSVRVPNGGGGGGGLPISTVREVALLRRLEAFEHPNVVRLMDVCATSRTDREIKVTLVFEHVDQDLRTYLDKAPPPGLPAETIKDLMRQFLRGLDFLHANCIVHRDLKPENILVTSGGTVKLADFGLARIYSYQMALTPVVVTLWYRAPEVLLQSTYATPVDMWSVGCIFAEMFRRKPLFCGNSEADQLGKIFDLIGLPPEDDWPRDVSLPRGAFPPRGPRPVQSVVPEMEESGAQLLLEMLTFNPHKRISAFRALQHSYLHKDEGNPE
T2 sequence (P30281 whole entry partner): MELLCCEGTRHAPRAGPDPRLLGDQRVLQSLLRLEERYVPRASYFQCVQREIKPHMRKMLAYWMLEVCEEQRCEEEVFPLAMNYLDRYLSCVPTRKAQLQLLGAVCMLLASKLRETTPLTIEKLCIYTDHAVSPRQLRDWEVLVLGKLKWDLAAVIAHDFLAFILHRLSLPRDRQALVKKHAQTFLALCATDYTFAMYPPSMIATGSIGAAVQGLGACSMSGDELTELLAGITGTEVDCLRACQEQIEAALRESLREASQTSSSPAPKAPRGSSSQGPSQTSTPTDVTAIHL
How it was run: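 Apparent Ki derived by fitting background-corrected activity to competitive (or, for tight binders, competitive tight-binding) equations with measured ATP Km. Rb phosphorylation by radiolabelled ATP was measured at 30°C, 20 min standard or 60 min at 5 nM complex for tight binders, via nitrocellulose capture and phosphorimager.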

CDK2/cyclin A = target: T3, CDK2/cyclin A (Homo sapiens, UniProt P24941); test: Inhibition of CDK2/cyclin A retinoblastoma kinase activity; assay type: biochemical; conditions: read-out: Ki CDK 2/A
T3 construct: made in house; host or cells: CDK2: insect cells (baculovirus); cyclin A: E. coli, then limited proteolysis
How it was run: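 Baculovirus-expressed CDK2 with excess proteolyzed cyclin A (or purified complex), 150 nM or 5 nM, phosphorylating an Rb fragment with 25 μM [32/33P]ATP, pH 7.4, 30° C, 20 min. Filter-captured radioactivity by phosphorimager; apparent Ki from fits to competitive or tight-binding competitive inhibition using measured ATP Km.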

Saos-2 = test: Inhibition of cell growth, MTT assay, Saos-2; assay type: cell-based; conditions: Saos-2, MTT assay; for pIC50 / IC90: Homo sapiens; for % inhibition of growth in parentheses after >25: concentration not given
Procedure: as §1

| SMILES | pIC50 (U2-OS) | IC90 (U2-OS) [nM] | pKi [1] | pIC50 (HCT116) | IC90 (HCT116) [nM] | pKi [2] | pKi (CDK2/cyclin A) | % inhibition of growth in parentheses after >25 (U2-OS) | pIC50 (Saos-2) | IC90 (Saos-2) [nM] | % inhibition of growth in parentheses after >25 (Saos-2) | % inhibition of growth in parentheses after >25 (HCT116; concentration not given) |
| --- | --- | --- | --- | --- | --- | --- | --- | --- | --- | --- | --- | --- |
| Nc1nc(Nc2ccc(N3CCOCC3)cc2)sc1C(=O)c1c(Cl)cccc1Cl [C(55), [4-Amino-2-(4-morpholin-4-yl-phenylamino)-thiazol-5-yl]-(2,6-dichloro-phenyl)-methanone] | 4.74 | > 25000 | 6.30 | 5.37 | 17000 | 8.07 | 6.31 | (74%) | 4.77 | > 25000 | 69% |  |
| Nc1ccc(Cl)c(C(=O)c2sc(Nc3ccc(N4CCNCC4)cc3)nc2N)c1Cl [H(2), (3-Amino-2,6-dichloro-phenyl)-[4-amino-2-(4-piperazin-1-yl-phenylamino)-thiazol-5-yl]-methanone Trihydrochloride] | 4.80 | 21000 | 6.44 | 4.82 | 25000 | 8.44 | 6.32 |  | 4.89 | 22000 |  |  |
| Nc1nc(Nc2ccc(N3CCNC(=O)C3)cc2)sc1C(=O)c1c(F)cccc1F [C(120), 4-{4-[4-Amino-5-(2,6-difluoro-benzoyl)-thiazol-2-ylamino]-phenyl}-piperazin-2-one] | 5.24 | 11000 | 7.21 | 5.46 | 6000 | 7.96 | 7.10 |  | 5.59 | 5200 |  |  |
| Nc1nc(Nc2ccc(N3CCSCC3)cc2)sc1C(=O)c1c(F)cccc1F [C(119), [4-Amino-2-(4-thiomorpholin-4-yl-phenylamino)-thiazol-5-yl]-(2,6-difluoro-phenyl)-methanone] | 5.11 | 12000 | 6.61 | 5.40 | 7000 | 7.62 | 7.07 |  | 5.15 | 13000 |  |  |
| CC(=O)Nc1ccc(Cl)c(C(=O)c2sc(Nc3ccc(N4CCN(C)CC4)cc3)nc2N)c1Cl [C(86), N-(3-{4-Amino-2-[4-(4-methyl-piperazin-1-yl)-phenylamino]-thiazole-5-carbonyl}-2,4-dichloro-phenyl)-acetamide] | 4.85 | 22000 | 5.88 | 5.19 | 17000 | 7.82 | 5.96 |  | 4.92 | 22000 |  |  |
| CC(=O)c1ccc(Nc2nc(N)c(C(=O)c3ccccc3[N+](=O)[O-])s2)cc1 [C(24), 1-{4-[4-Amino-5-(2-nitro-benzoyl)-thiazol-2-ylamino]-phenyl}-ethanone] | 5.72 | 3000 | 7.34 | 6.15 | 1500 | 8.10 | 6.61 |  | 5.85 | 2800 |  |  |
| Cc1c(C(=O)c2sc(Nc3ccc(S(N)(=O)=O)cc3)nc2N)sc2ccccc12 [C(49), 4-[4-Amino-5-(3-methyl-benzo[b]thiophene-2-carbonyl)-thiazol-2-ylamino]-benzenesulfonamide] | 4.85 | 22000 | 7.47 | 5.25 | 12000 | 7.64 | 8.00 |  | 5.40 | 20000 |  |  |
| Nc1nc(Nc2ccc3nc[nH]c3c2)sc1C(=O)c1c(Cl)cncc1Cl [C(63), [4-Amino-2-(1H-benzoimidazol-5-yl-amino)-thiazol-5-yl]-(3,5-dichloro-pyridin-4-yl)-methanone] | 4.80 | > 25000 | 6.88 | 4.92 | 22000 | 7.77 | 6.70 | 84% | 5.05 | 20000 |  |  |
| CN1CCN(c2ccc(Nc3nc(N)c(C(=O)c4c(Cl)cncc4Cl)s3)cc2)CC1 [C(70), {4-Amino-2-[4-(4-methyl-piperazin-1-yl)-phenylamino]-thiazol-5-yl}-(3,5-dichloro-pyridin-4-yl)-methanone] | 5.30 | 11000 | 5.86 | 5.66 | 5900 | 8.55 | 5.95 |  | 5.24 | 12000 |  |  |
| C[C@@H]1CN(c2ccc(Nc3nc(N)c(C(=O)c4c(F)cccc4F)s3)cc2)C[C@H](C)N1 [J(5), {4-Amino-2-[4-(cis-3,5-dimethyl-piperazin-1-yl)-phenylamino]-thiazol-5-yl}-(2,6-difluoro-phenyl)-methanone] | 6.00 | 1800 | 6.12 | 6.15 | 1600 | 8.20 | 6.48 |  | 6.05 | 1500 |  |  |

The remaining molecules from weak to strong by pIC50 (U2-OS), led by results:

| pIC50 (U2-OS) | IC90 (U2-OS) [nM] | pKi [1] | pIC50 (HCT116) | IC90 (HCT116) [nM] | pKi [2] | pKi (CDK2/cyclin A) | SMILES | % inhibition of growth in parentheses after >25 (U2-OS) | pIC50 (Saos-2) | IC90 (Saos-2) [nM] | % inhibition of growth in parentheses after >25 (Saos-2) | % inhibition of growth in parentheses after >25 (HCT116; concentration not given) |
| --- | --- | --- | --- | --- | --- | --- | --- | --- | --- | --- | --- | --- |
| 4.80 | > 25000 | 6.63 | 5.00 | 25000 | 8.15 | 6.51 | Nc1nc(Nc2ccc3nc[nH]c3c2)sc1C(=O)c1c(Cl)cc(C(F)(F)F)cc1Cl [C(37), [4-Amino-2-(1H-benzoimidazol-6-ylamino)-thiazol-5-yl]-(2,6-dichloro-4-trifluoromethyl-phenyl)-methanone] | (80%) | 4.85 | > 25000 | (70%) |  |
| 5.10 | 12000 | 6.64 | 4.74 | > 25000 | 8.82 | 6.49 | CN1CCN(c2ccc(Nc3nc(N)c(C(=O)c4c(Cl)cc(Br)c(N)c4Cl)s3)cc2)CC1 [C(96), (3-Amino-4-bromo-2,6-dichloro-phenyl)-{4-amino-2-[4-(4-methyl-piperazin-1-yl)-phenylamino]-thiazol-5-yl}-methanone] |  | 5.38 | 10000 |  | (82%) |
| 5.41 | 5800 | 7.12 | 5.82 | 3000 | 7.60 | > 7.30 | Cc1cc([N+](=O)[O-])sc1C(=O)c1sc(Nc2ccc(S(N)(=O)=O)cc2)nc1N [C(95), 4-[4-Amino-5-(3-methyl-5-nitro-thiophene-2-carbonyl)-thiazol-2-ylamino]-benzenesulfonamide] |  | 5.74 | 4500 |  |  |
| 5.46 | 5800 | 6.33 | 6.06 | 2400 | 8.62 | 6.39 | Nc1nc(Nc2ccc(N3CCNCC3)cc2)sc1C(=O)c1c(Cl)cccc1Cl [H(3), [4-Amino-2-(4-piperazin-1-yl-phenylamino)-thiazol-5-yl]-(2,6-dichloro-phenyl)-methanone] |  | 5.74 | 3000 |  |  |
| 5.62 | 5200 | 6.14 | 5.89 | 2900 | 7.57 | 6.25 | CC(=O)N1CCN(c2ccc(Nc3nc(N)c(C(=O)c4sccc4C)s3)cc2)CC1 [C(98), 2-[4-(1-Acetyl-piperazine-4-yl)-phenylamino]-4-amino-thiazol-5-yl-(3-methyl-thiophen-2-yl)-methanone] |  | 5.57 | 5300 |  |  |
